Patent US20190117770A1, “USES OF IMMUNOCONJUGATES TARGETING CD138” (Biotest AG, priority 2011, published 2019)

Assays:
[1] = literature; cited from earlier work
[2] = test system: primary mammary tumor of a patient; assay: Mammary carcinoma xenograft; assay type: in vivo, NMRI (nude) mice
[3] = test system: human derived breast cancer model with CD138 IHC score 2-3; assay: Breast cancer model, CD138 IHC score 2-3; assay type: in vivo, NMRI nude mice; settings: 10 mg/kg
Excerpt: The results are shown in terms of the effect on the mean relative tumor volume in the model relative to an intravenous administration of PBS. For the calculation of the median relative tumor volume on day, see FIG. 33.

[4] = test system: human derived breast cancer model with CD138 IHC score 1-2; assay: Breast cancer model, CD138 IHC score 1-2; assay type: in vivo, NMRI nude mice; settings: 10 mg/kg
Excerpt: No difference in the treatment regimens was observed. The results are shown in terms of the effect on the mean relative tumor volume in the model relative to an intravenous administration of PBS. For the calculation of the median relative tumor volume on day, see FIG. 33.

primary pancreatic tumor = assay: Example 9 xenograft (FIG. 38); assay type: in vivo, NMRI (nude) mice; settings: 10 mg/kg; treatment period and treatment free period
Excerpt: The results are shown in terms of the effect on the mean relative tumor volume.

RPMI 8226 = assay: Synergy determination in cell lines (Chou and Talalay); assay type: cell-based; settings: drug in combination with BT062
Procedure: Combination studies in xenograph mouse models were preceded by studies in cell lines. […] Here, IC50 values for the cytotoxic effects for each drug and each cell line are calculated, and then IC50 ratios for each drug pair. The cells were then exposed to dilution series of either these drug mixtures, or the drugs alone. Experimental data were analyzed using the CompuSyn software (ComboSyn, Inc., Paramus, N.J.). Combination Indexes (CI) for each independent experiment were calculated and reported separately. In the analysis, CI less than 1, equal to 1 and more than 1 indicates synergy, additivity and antagonism, respectively. According to the classification of T. C.

CD138 expression = assay: Effect of lenalidomide on CD138 expressing cells in vitro; settings: different cell lines, 24 h incubation (FIG. 32)
[5] = test system: MOLP8 multiple myeloma cells; assay: MOLP8 xenograft, combination BT062 and VELCADE; assay type: in vivo, mice
Excerpt: The ACTIVITY RATING is another measurement for the effects of a combination. This rating is based on the Log10 cell kill
where (T-C) or tumor growth delay, is the median time in days required for the treatment group (T) and the control group (C) tumours, to reach a predetermined size (600 mm^3).

[6] = Clinical trials of other immunoconjugates (literature); assay type: in vivo, human; settings: assuming 70 kg and 1.9 m^2 body surface area
[7] = cited from earlier work

For `COc1cc2cc(c1Cl)N(C)C(=O)C[C@H](OC(=O)[C@H](C)N(C)C(=O)CCS)[C@]1(C)O[C@H]1[C@H](C)[C@@H]1C[C@@](O)(NC(=O)O1)[C@H](OC)/C=C/C=C(\C)C2` [DM1, N^2-deacetyl-N^2-(3-mercapto-1-oxopropyl)-maytansine], the “cytotoxicity, fold more cytotoxic than maytansine” value [1] is listed as 3- to 10 fold.

For `COc1cc2cc(c1Cl)N(C)C(=O)C[C@H](OC(=O)[C@H](C)N(C)C(=O)CCC(C)(C)S)[C@]1(C)O[C@H]1[C@H](C)[C@@H]1C[C@@](O)(NC(=O)O1)[C@H](OC)/C=C/C=C(\C)C2` [DM4, N^2′-deacetyl-N^2′-(4-methyl-4-mercapto-1-oxopentyl)-maytansine, reference compound], the tumor response ([2]; amount corresponding to that in 4 mg BT062) was “did not result in tumor response”.

With `CC(=O)O[C@@]12CO[C@@H]1C[C@H](O)[C@@]1(C)C(=O)[C@H](O)C3=C(C)[C@@H](OC(=O)[C@H](O)[C@@H](NC(=O)OC(C)(C)C)c4ccccc4)C[C@@](O)([C@@H](OC(=O)c4ccccc4)[C@H]21)C3(C)C` [Docetaxel, reference compound] the tumor response [3] was “response”, the tumor response [4] was “did not respond” and the tumor response (primary pancreatic tumor) was “complete remission”.

For `Nc1cccc2c1CN(C1CCC(=O)NC1=O)C2=O` (centres unmarked) [Lenalidomide], the “Estimate of synergistic result” value (RPMI 8226) was “Synergistic” and the CD138 expression (CD138 expression) was “concentration dependent CD138 decrease”.

With `CC(=O)O[C@H]1C(=O)[C@@]2(C)[C@H]([C@H](OC(=O)c3ccccc3)[C@]3(O)C[C@H](OC(=O)[C@H](O)[C@@H](NC(=O)c4ccccc4)c4ccccc4)C(C)=C1C3(C)C)[C@]1(OC(C)=O)CO[C@@H]1C[C@@H]2O` [Taxol, Paclitaxel, reference compound] the tumor response ([2]; 10 mg/kg) was “only a minor tumor growth delay”.

In the case of `CC(C)C[C@H](NC(=O)[C@H](Cc1ccccc1)NC(=O)c1cnccn1)B(O)O` [Velcade, bortezomib, reference compound], the “effect on the tumor volume” value ([5]; VELCADE treatment alone (FIG. 31)) is reported as “no effect”, the “Tumor free survivors day 67” value ([5]; Velcade 1 mg/kg) is reported as 0/6 and the log cell kill ([5]; Velcade 1 mg/kg) is reported as 0.0.

In the case of `COc1cc2cc(c1Cl)N(C)C(=O)C[C@H](OC(=O)[C@H](C)N(C)C(C)=O)[C@]1(C)O[C@H]1[C@H](C)[C@@H]1C[C@@](O)(NC(=O)O1)[C@H](OC)/C=C/C=C(\C)C2` [maytansine], the “cytotoxicity, fold higher than Vinca alkaloids or taxol” value [1] is given as 200-1000 fold.

For SAR3419, the “Corresponds to total concentration of” value [6] is listed as 110 mg, the “patients with a response” value ([7]; 22 patients at the MTD (55 mg/m^2)) is listed as 36% and the “patients achieving an objective response” value ([7]; 38 patients at 20 mg/m^2 or higher, weekly, B-cell NHL) is listed as 32%. The “MTD, single administration every three weeks” value ([7]; literature) was 160 mg/m^2.

For SGN-35, the “Corresponds to total concentration of” value [6] is listed as 84 mg and the “Once weekly regimen, dose administered” value ([7]; literature) is listed as “Up to 1.2 mg/kg”.

B1: IMGN242: analog of cantuzumab mertansine, huC242-DM4 (conjugate, chains of the INN, looked up)
VH: QVQLVQSGAEVKKPGETVKISCKASDYTFTYYGMNWVKQAPGQGLKWMGWIDTTTGEPTYAQKFQGRIAFSLETSASTAYLQIKSLKSEDTATYFCARRGPYNWYFDVWGQGTTVTVSS
VL: DIVMTQSPLSVPVTPGEPVSISCRSSKSLLHSNGNTYLYWFLQRPGQSPQLLIYRMSNLVSGVPDRFSGSGSGTAFTLRISRVEAEDVGVYYCLQHLEYPFTFGPGTKLELK
modifications: DM4 maytansinoid conjugate
In the case of B1, the “subjects experiencing dose-limiting toxicity” value ([7]; 223 mg/m^2 once every 3 weeks, second cycle) is given as 2 of 6.

B2: SGN-75: anti-CD70; MMAF (SEATTLE GENETICS) (conjugate, chains of the INN, looked up)
VH: QVQLVQSGAEVKKPGASVKVSCKASGYTFTNYGMNWVRQAPGQGLKWMGWINTYTGEPTYADAFKGRVTMTRDTSISTAYMELSRLRSDDTAVYYCARDYGDYGMDYWGQGTTVTVSS
VL: DIVMTQSPDSLAVSLGERATINCRASKSVSTSGYSFMHWYQQKPGQPPKLLIYLASNLESGVPDRFSGSGSGTDFTLTISSLQAEDVAVYYCQHSREVPWTFGQGTKVEIK
modifications: MMAF conjugate
In the case of B2, the “MTD, once weekly regimen” value ([7]; literature) is listed as “not been reached)”.
